Laboratory results: US20070148703A1, “Method of screening remedy for breast cancer” (Genomembrane, Inc., priority 2003, published 2007)
Where “and” joins values, the source holds several entries; their conditions need not be identical. Identical values can stand only once.

What was measured:
Format in all cases: cell-based, human
T-47D cells [1] = assay: Inhibition of [3H] estrone-3-sulfate uptake by T-47D cells
Experimental: The cell suspension and a solution containing a radiolabeled test compound in the transport medium were separately incubated at 37° C. for 20 min, then transport was initiated by mixing them. […] Each cell pellet was solubilized in 3 N KOH, and neutralized with HCl. Then, the associated radioactivity was measured by means of a liquid scintillation counter using Clearsol-1 (Nacalai tesque) as a liquid scintillation fluid.
To characterize the substrate specificity of the transport system, the inhibitory effects of hormones, their conjugated metabolites, and various organic compounds on [^3H] estrone-3-sulfate uptake by T-47D cells were examined. The results are shown in (Table 1). In Table 1, values in control (%) are indicated as the ratio in comparison to uptake amount of estrone-3-sulfate in control which was set at 100%. Each value represents the mean±S.E.M. (n=4), and *P<0.05 indicates comparison to control (Student's test).

MCF-7 cells = assay: MCF-7 cell proliferation with estrone-3-sulfate or estradiol, with or without BSP
Experimental: It was examined whether cell proliferation promoting effect on MCF-7 cells (ATCC-HTB22) by estrone-3-sulfate is inhibited by suppressing intracellular accumulation of estrone-3-sulfate. MCF-7 cells were seeded on a 96-well plate at a concentration of 8×10^4 cells/cm^2, and cultured for 1 day. Then, a medium containing estrone-3-sulfate (Sigma Chemicals) at various concentrations, ranging from 10 pM to 10 μM, and 100 μM of bromosulfophtalein (BSP: Sigma Chemicals), and a medium containing estradiol (Sigma Chemicals) at various concentrations, ranging from 1 pM to 10 nM, and 100 μM of BSP were added respectively, and culture was conducted for 3 more days. Subsequently, cell amount was measured.
However, this is considered to be estrogen activity by BSP itself or metabolite thereof. This effect decreased relatively with the increase of estrogen concentration. […] Accordingly, it is considered that the uptake of estrone-3-sulfate into the cells was inhibited by BSP, and that of estradiol, which is highly lipid-soluble, was not inhibited, and therefore there was no change in cell proliferation promoting effect.

T-47D cells [2] = assay: T-47D cell proliferation assay
Experimental: (a) T-47D cells were seeded at a density of 8,000 cells/well and cultured. 24 hours after seeding (day 1), estradiol (1 pM, closed triangles), estrone-3-sulfate (100 nM, closed circles), DMSO (0.1, open triangles) or water (open circles) was added. After the designated number of days, T-47D cells were trypsinized and counted.
(b) T-47D cells were proliferated in the presence of various concentrations of estradiol (closed triangles) or estrone-3-sulfate (closed circles), ranging from 10^−16 to 10^−11 M, or from 10^−11 to 10^−6 M, respectively. The cell numbers were counted at day 6 after seeding. Each value represents the mean±S.E.M. (n=3).
T-47D cells were routinely proliferated in RPMI 1640 medium (Sigma Chemicals) containing phenol red and 10% FCS in a humidified incubator at 37° C. and 5% CO2. For the proliferation assay, FCS was incubated with 0.5% dextran-coated charcoal (DCC) at 4° C. overnight, then the medium was decanted and DCC was filtered off (0.2 μm) to remove steroid hormones. This procedure was repeated three times. Then T-47D cells were seeded into 96-well plates at a density of 8,000 cells/well in phenol red-free RPMI 1640 medium containing 2.5% DCC-treated FCS. […] At designated days after seeding, the cells were treated with trypsin, and cell numbers were counted.

T-47D cells [3] = assay: Uptake of estrone-3-sulfate by T-47D cells (time course, cation and concentration dependence); conditions: 5.1 nM to 50 μM, 37° C., 10 min, saturable uptake; mean±S.E.M.
Experimental: Cultured T-47D cells were incubated at 37° C. over 35 min in medium containing [^3H] estrone-3-sulfate (7.1 nM) with (open circles) or without (closed circles) 1 mM unlabeled estrone-3-sulfate. Each value represents the mean±S.E.M. (n=4). When the error bars are not shown, they are smaller than the symbols.
The uptake rate of [^3H] estrone-3-sulfate (7.1 nM) for 10 min was measured in the presence or absence of extracellular Na^+. Extracellular Na^+ was replaced with K^+, Li^+, or N-methylglucamine^+ (NMG^+). Each value represents the mean±S.E.M. (n=4).
The uptake of estrone-3-sulfate at various concentrations, ranging from 5.1 nM to 50 μM, was measured at 37° C. for 10 min. […]
Transport experiments were performed as described previously (Tamai et al., 2001). […] Then, the associated radioactivity was measured by means of a liquid scintillation counter using Clearsol-1 (Nacalai tesque) as a liquid scintillation fluid.
(§1) Cellular protein content was determined according to the method of Bradford by using a BioRad protein assay kit (Hercules) with bovine serum albumin as the standard (Bradford, 1976). […] All data were expressed as means±S.E.M., and statistical analysis was performed by the use of Student's t test with P<0.05 as the criterion of significance. […]

T-47D cells [4] = assay: Uptake of DHEAS by T-47D cells (time course, concentration dependence); conditions: 10.3 nM to 100 μM, 37° C., 10 min, saturable uptake
Experimental: The uptake of DHEAS at various concentrations, ranging from 10.3 nM to 100 μM, was measured at 37° C. for 10 min. The saturable uptake was obtained after subtraction of the uptake in the presence of excess of unlabeled DHEAS (5 mM) and used for the evaluation of kinetic constants by nonlinear least-squares analysis. […] Each value represents the mean±S.E.M. (n=4). When the error bars are not shown, they are smaller than the symbols.
Transport experiments were performed as described previously (Tamai et al., 2001). After cultivation of T-47D cells in 15 cm dishes, the cells were harvested and suspended in the transport medium containing 125 mM NaCl, 4.8 mM KCl, 5.6 mM D-glucose, 1.2 mM CaCl2, 1.2 mM KH2PO4, 1.2 mM MgSO4 and 25 mM Hepes, adjusted to pH 7.4. […] Then, the associated radioactivity was measured by means of a liquid scintillation counter using Clearsol-1 (Nacalai tesque) as a liquid scintillation fluid.
as §1

[5] = inhibitor 5 μM, mean±S.E.M. (n=4)
[6] = inhibitor 50 μM, mean±S.E.M. (n=4)
[7] = inhibitor 100 μM, mean±S.E.M. (n=4)
[8] = inhibitor 1000 μM, mean±S.E.M. (n=4)

C[C@]12CC[C@H](O)CC1=CC[C@@H]1[C@@H]2CC[C@]2(C)C(=O)CC[C@@H]12 [Dehydroepiandrosterone]
[3H] estrone-3-sulfate uptake, Control (%) (T-47D cells [1]; [5]): 75.6 ± 3.8 * % | [3H] estrone-3-sulfate uptake, Control (%) (T-47D cells [1]; [6]): 44.8 ± 8.0 * %

CCCN(CCC)S(=O)(=O)c1ccc(C(=O)O)cc1 [Probenecid]
inhibitory effect on [3H] estrone-3-sulfate uptake, in words (T-47D cells [1]; concentration not given): slight inhibitory effects | [3H] estrone-3-sulfate uptake, Control (%) (T-47D cells [1]; [7]): 103.2 ± 10.2% | [3H] estrone-3-sulfate uptake, Control (%) (T-47D cells [1]; [8]): 79.1 ± 3.8 * %

C[C@]12CC[C@@H]3c4ccc(O)cc4CC[C@H]3[C@@H]1CC[C@@H]2O [Estradiol]
[3H] estrone-3-sulfate uptake, Control (%) (T-47D cells [1]; [5]): 76.9 ± 4.8 * % | [3H] estrone-3-sulfate uptake, Control (%) (T-47D cells [1]; [6]): 45.7 ± 5.3 * %

C[C@]12CC[C@@H]3c4ccc(OS(=O)(=O)O)cc4CC[C@H]3[C@@H]1CCC2=O [Estrone-3-sulfate]
cell proliferation promoting effect on MCF-7 cells (MCF-7 cells; estrogen only (positive control), 3 days): cell proliferation promoting effect was observed | proliferation of T-47D cells compared with solvent alone (T-47D cells [2]; 100 nM): stimulated | EC50 (T-47D cells [2]; 6 days after seeding, nonlinear regression analysis, read-out: median effective concentration (EC50), stimulation of T-47D proliferation): ~0.0171 µM and 0.0171 µM | [3H] estrone-3-sulfate uptake, Control (%) (T-47D cells [1]; [5]): 34.7 ± 4.3 * % | [3H] estrone-3-sulfate uptake, Control (%) (T-47D cells [1]; inhibitor 5 μM, mean±S.E.M. (n=4), listed as estrone-3-sulfate): 34.7% | [3H] estrone-3-sulfate uptake, Control (%) (T-47D cells [1]; [6]): 6.6 ± 0.9 * % | [3H] estrone-3-sulfate uptake, Control (%) (T-47D cells [1]; inhibitor 50 μM, mean±S.E.M. (n=4), listed as estrone-3-sulfate): 6.6% | Km (T-47D cells [3]): 3.9 ± 0.78 µM | Vmax of estrone-3-sulfate uptake (T-47D cells [3]): 576.3±32.9 pmol/mg protein/10 min

C[C@H](CCC(=O)NCCS(=O)(=O)O)[C@H]1CC[C@H]2[C@@H]3[C@H](O)C[C@@H]4C[C@H](O)CC[C@]4(C)[C@H]3C[C@H](O)[C@]12C [Taurocholic acid]
[3H] estrone-3-sulfate uptake, Control (%) (T-47D cells [1]; [7]): 69.3 ± 2.7 * % | [3H] estrone-3-sulfate uptake, Control (%) (T-47D cells [1]; inhibitor 100 μM, mean±S.E.M. (n=4), listed as taurocholic acid): 69.3% | [3H] estrone-3-sulfate uptake, Control (%) (T-47D cells [1]; [8]): 24.1 ± 2.3 * %

C[C@]12CC[C@@H]3c4ccc(O)cc4CC[C@H]3[C@@H]1CCC2=O [Estrone]
[3H] estrone-3-sulfate uptake, Control (%) (T-47D cells [1]; [5]): 78.8 ± 3.3 * % | [3H] estrone-3-sulfate uptake, Control (%) (T-47D cells [1]; [6]): 64.8 ± 7.5 * %

Dehydroepiandrosterone sulfate
[3H] estrone-3-sulfate uptake, Control (%) (T-47D cells [1]; [5]): 66.4 ± 5.7 * % | [3H] estrone-3-sulfate uptake, Control (%) (T-47D cells [1]; [6]): 27.0 ± 7.6 * % | [3H] estrone-3-sulfate uptake, Control (%) (T-47D cells [1]; inhibitor 50 μM, mean±S.E.M. (n=4), listed as DHEAS): 44.8% | Km (T-47D cells [4]): 62.5 ± 21.1 µM | Vmax of DHEAS uptake (T-47D cells [4]): 1893±315.7 pmol/mg protein/10 min

CC1(C)S[C@@H]2[C@H](NC(=O)Cc3ccccc3)C(=O)N2[C@H]1C(=O)O [Penicillin G]
inhibitory effect on [3H] estrone-3-sulfate uptake, in words (T-47D cells [1]; concentration not given): slight inhibitory effects | [3H] estrone-3-sulfate uptake, Control (%) (T-47D cells [1]; [7]): 83.2 ± 2.0 * % | [3H] estrone-3-sulfate uptake, Control (%) (T-47D cells [1]; [8]): 75.9 ± 10.5%

Nc1ccc(C(=O)NCC(=O)O)cc1 [p-Aminohippuric acid]
inhibitory effect on [3H] estrone-3-sulfate uptake, in words (T-47D cells [1]; concentration not given): no effect | [3H] estrone-3-sulfate uptake, Control (%) (T-47D cells [1]; [7]): 87.8 ± 1.5% | [3H] estrone-3-sulfate uptake, Control (%) (T-47D cells [1]; [8]): 112.7 ± 18.6%

O=C(O)c1ccccc1O [Salicylate]
inhibitory effect on [3H] estrone-3-sulfate uptake, in words (T-47D cells [1]; concentration not given): no effect | [3H] estrone-3-sulfate uptake, Control (%) (T-47D cells [1]; [7]): 94.9 ± 6.0% | [3H] estrone-3-sulfate uptake, Control (%) (T-47D cells [1]; [8]): 82.7 ± 7.3%

C[C@H]1O[C@@H](O[C@H]2[C@@H](O)C[C@H](O[C@H]3[C@@H](O)C[C@H](O[C@H]4CC[C@@]5(C)[C@H](CC[C@@H]6[C@@H]5C[C@@H](O)[C@]5(C)[C@@H](C7=CC(=O)OC7)CC[C@]65O)C4)O[C@@H]3C)O[C@@H]2C)C[C@H](O)[C@@H]1O [Digoxin]
inhibitory effect on [3H] estrone-3-sulfate uptake, in words (T-47D cells [1]; concentration not given): no effect | [3H] estrone-3-sulfate uptake, Control (%) (T-47D cells [1]; inhibitor 100 μM, DMSO 1%, vs Control (DMSO 1%)): 90.3 ± 3.5% | [3H] estrone-3-sulfate uptake, Control (%) (T-47D cells [1]; inhibitor 1000 μM, DMSO 1%, vs Control (DMSO 1%)): 94.8 ± 4.4%

O=C1OC(c2ccc(O)c(S(=O)(=O)O)c2)(c2ccc(O)c(S(=O)(=O)O)c2)c2c(Br)c(Br)c(Br)c(Br)c21 [Bromosulfophtalein]
cell proliferation of MCF-7 cells with 100 μM BSP (MCF-7 cells; 100 μM BSP added simultaneously, low estrone-3-sulfate concentration): cell proliferation promoting effect was observed | cell proliferation promoting effect by BSP (MCF-7 cells; 100 μM BSP plus 10 μM estrone-3-sulfate): inhibited | cell proliferation promoting effect by BSP (MCF-7 cells; 100 μM BSP plus estradiol): no change | [3H] estrone-3-sulfate uptake, Control (%) (T-47D cells [1]; [7]): 18.9 ± 2.8 * % | [3H] estrone-3-sulfate uptake, Control (%) (T-47D cells [1]; inhibitor 100 μM, mean±S.E.M. (n=4), listed as bromosulfophthalein): 18.9% | [3H] estrone-3-sulfate uptake, Control (%) (T-47D cells [1]; [8]): 14.2 ± 1.2 * %

C[C@]12CC[C@@H]3c4ccc(O)cc4CC[C@H]3[C@@H]1CC[C@@H]2O[C@@H]1O[C@H](C(=O)O)[C@@H](O)[C@H](O)[C@H]1O [Estradiol-17β-glucuronide]
inhibitory effect on [3H] estrone-3-sulfate uptake, in words (T-47D cells [1]; 50 μM): no effect | [3H] estrone-3-sulfate uptake, Control (%) (T-47D cells [1]; [5]): 73.8 ± 8.7% | [3H] estrone-3-sulfate uptake, Control (%) (T-47D cells [1]; [6]): 90.4 ± 11.5%

CC[N+](CC)(CC)CC [Tetraethylammonium]
inhibitory effect on [3H] estrone-3-sulfate uptake, in words (T-47D cells [1]; concentration not given): no effect | [3H] estrone-3-sulfate uptake, Control (%) (T-47D cells [1]; [7]): 87.4 ± 1.5 * % | [3H] estrone-3-sulfate uptake, Control (%) (T-47D cells [1]; [8]): 112.7 ± 18.6%
